According to patent publication US20190070229A1, “Composition comprising a lactic acid bacteria for preventing and treating vaginosis and the use thereof” (HAUDONGCHUN CO., LTD, priority 2016, published 2019):

Legend:
Settings in all cases: MRS medium, 37° C.; A50, K50, S50 50, C34 34, T15 15, G20 20, R25 25 microgram/ml
[1] = test system: BBC (Bacillus cereus); assay: Antibiotic susceptibility of lactic acid bacteria strains; format: cell-based; further: key: +++: being normally grown without the effect of antibiotic; −: being not grown caused by the effect of antibiotic
Procedure: (§1) In order to determine the antibiotic resistance of the lactic acid bacteria strains reproducing abundant lactic acids, i.e., Lactobacillus acidophilus (KCTC No. 3164), Bifidobacterium longum sub sp. longum (KCTC No. 3128) etc, the bacteria was inoculated into MRS medium (10 g of Protease peptone, 10 g of beef extract, 5 g of yeast extract, 20 g of D-glucose, 1 ml of Tween 80, 2 g of K2HPO4, 5 g of sodium acetate, 2 g of diammonium hydrogencitrate, 0.2 g of MgSO47H20, 0.2 g of MnSO4H20, 1 L of distilled water, pH 6.2-6.5) and performed to shaking incubation at 37° C. at the speed of 150 rpm.

[2] = test system: BLC (Lactobacillus casei); assay: as above; format: cell-based; further: key: +++: being normally grown without the effect of antibiotic; −: being not grown caused by the effect of antibiotic
Procedure: as §1

[3] = test system: BBC2 (Bifidobacterium catenulatum); assay: as above; format: cell-based; further: key: +++: being normally grown without the effect of antibiotic; −: being not grown caused by the effect of antibiotic
Procedure: as §1

[4] = test system: BSS (Streptococcus sp); assay: as above; format: cell-based; further: key: +++: being normally grown without the effect of antibiotic; −: being not grown caused by the effect of antibiotic
Procedure: as §1

[5] = test system: BBA (Bifidobacterium adolescentis); assay: as above; format: cell-based
Procedure: as §1

[6] = test system: BBL (Bifidobacterium longum subsp. Longum); assay: as above; format: cell-based
Procedure: as §1

[7] = test system: BLD (Lactobacillus delbrueckii subsp. bulgaricus); assay: as above; format: cell-based
Procedure: as §1

[8] = test system: BLB (Lactobacillus brevis); assay: as above; format: cell-based
Procedure: as §1

[9] = test system: BLA (Lactobacillus acidophilus); assay: as above; format: cell-based
Procedure: as §1

[10] = test system: BBB1 (Bifidobacterium bifidum); parameters: key to the marks not given beside the values
[11] = test system: BBB2 (Bifidobacterium breve); parameters: key to the marks not given beside the values

Compound | Antibiotic susceptibility (growth of BBC with antibiotic) [1] | Antibiotic susceptibility (growth of BLC with antibiotic) [2] | Antibiotic susceptibility (growth of BBC2 with antibiotic) [3] | Antibiotic susceptibility (growth of BSS with antibiotic) [4] | Antibiotic susceptibility (growth of BBA with antibiotic) [5] | Antibiotic susceptibility (growth of BBL with antibiotic) [6] | Antibiotic susceptibility (growth of BLD with antibiotic) [7] | Antibiotic susceptibility (growth of BLB with antibiotic) [8] | Antibiotic susceptibility (growth of BLA with antibiotic) [9] | Antibiotic susceptibility (growth of BBB1 with antibiotic) [10] | Antibiotic susceptibility (growth of BBB2 with antibiotic) [11]
CC1(C)S[C@@H]2[C@H](NC(=O)[C@H](N)c3ccccc3)C(=O)N2[C@H]1C(=O)O [Ampicillin, ampicillin] | − | − | − | − | − | − | − | − |  |  | 
O=C(N[C@H](CO)[C@H](O)c1ccc([N+](=O)[O-])cc1)C(Cl)Cl [Chloramphenicol, chloramphenicol] | − | − | − | − | − | − | − | − | − |  | 
NC[C@H]1O[C@H](O[C@H]2[C@H](O)[C@@H](O[C@H]3O[C@H](CO)[C@@H](O)[C@H](N)[C@H]3O)[C@H](N)C[C@@H]2N)[C@H](O)[C@@H](O)[C@@H]1O [Kanamycin, kanamycin] |  | +++ |  | +++ |  | +++ | +++ | +++ | +++ | +++ | +++
CO[C@H]1/C=C/O[C@@]2(C)Oc3c(C)c(O)c4c(O)c(c(/C=N/N5CCN(C)CC5)c(O)c4c3C2=O)NC(=O)/C(C)=C\C=C\[C@H](C)[C@H](O)[C@@H](C)[C@@H](O)[C@@H](C)[C@H](OC(C)=O)[C@@H]1C [Ripampicin, rifampicin] | − | − | − | − | − | − | − | − | − |  | 
[H]/N=C(/N)N[C@H]1[C@H](O)[C@@H](O)[C@H](O[C@@H]2O[C@@H](C)[C@](O)(C=O)[C@H]2O[C@@H]2O[C@@H](CO)[C@H](O)[C@@H](O)[C@@H]2NC)[C@@H](N/C(N)=N\[H])[C@@H]1O [Streptomycin] |  | − |  |  |  | +++ | − | − | − |  | +++
CN(C)[C@@H]1C(=O)C(C(N)=O)=C(O)[C@@]2(O)C(=O)C3=C(O)c4c(O)cccc4[C@@](C)(O)[C@H]3C[C@@H]12 [Tetracyclin, tetracycline] | − | − | − | − | − | − | − | − | − |  | 
gentamycin | +++ | − | +++ |  | +++ | +++ | − | − | − |  | 
